The text below walks through data of paper PMC9861162 (Pharmaceuticals, 2022).

One data set concerns CYP3A4. As to conditions: cited from earlier work.
The next data set concerns the target T1, CYP2C8 (Homo sapiens, UniProt P10632).
T1 sequence (P10632 1-490): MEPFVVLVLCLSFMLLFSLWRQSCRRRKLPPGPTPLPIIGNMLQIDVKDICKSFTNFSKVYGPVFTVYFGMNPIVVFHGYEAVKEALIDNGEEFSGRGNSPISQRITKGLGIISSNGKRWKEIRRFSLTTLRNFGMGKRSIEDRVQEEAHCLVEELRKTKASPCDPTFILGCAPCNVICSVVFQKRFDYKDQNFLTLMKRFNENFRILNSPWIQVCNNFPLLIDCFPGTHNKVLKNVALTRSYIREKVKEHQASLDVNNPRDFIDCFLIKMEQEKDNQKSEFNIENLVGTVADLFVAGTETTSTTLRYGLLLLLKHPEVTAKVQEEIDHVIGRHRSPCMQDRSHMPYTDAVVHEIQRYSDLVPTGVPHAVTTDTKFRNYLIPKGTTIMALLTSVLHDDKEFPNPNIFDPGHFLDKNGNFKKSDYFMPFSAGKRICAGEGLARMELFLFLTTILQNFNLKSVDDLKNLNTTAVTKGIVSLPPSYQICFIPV
Details: method as in Hua et al. [19]. As to conditions: by CYP2C8; ref Hua et al. [19]; cited from earlier work.

Data set [1] addresses T2, CYP2A6 (Homo sapiens, UniProt P11509).
T2 sequence (P11509 1-494): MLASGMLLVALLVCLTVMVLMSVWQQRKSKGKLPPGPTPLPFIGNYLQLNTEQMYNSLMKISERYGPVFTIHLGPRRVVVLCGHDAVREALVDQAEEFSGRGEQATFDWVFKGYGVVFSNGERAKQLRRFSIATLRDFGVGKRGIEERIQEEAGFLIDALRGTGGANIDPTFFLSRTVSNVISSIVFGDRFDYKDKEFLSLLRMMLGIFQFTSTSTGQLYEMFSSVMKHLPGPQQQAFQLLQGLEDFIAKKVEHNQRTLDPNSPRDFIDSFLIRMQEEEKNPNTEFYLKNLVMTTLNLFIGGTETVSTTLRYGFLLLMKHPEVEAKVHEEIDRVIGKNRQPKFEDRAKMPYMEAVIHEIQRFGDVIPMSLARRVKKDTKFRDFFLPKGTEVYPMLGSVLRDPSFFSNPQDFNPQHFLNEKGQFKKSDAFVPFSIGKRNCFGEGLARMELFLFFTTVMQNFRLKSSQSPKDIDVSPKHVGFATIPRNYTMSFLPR
In words: in vitro CYP450 metabolism inhibition assay in human liver microsomes, CYP2A6 (coumarin). As to conditions: HLM, substrate coumarin; figure in parentheses not defined. How it is done:
(§1) The incubation conditions employed for each CYP450 isoform were performed, as previously described.
(§2) Buffer solution (0.1 mol/L aqueous phosphate buffer, pH 7.4, 69 µL), NADPH-regenerating solutions (10 µL solution A: 26 mmol/L NADP+, 66 mmol/L glucose-6-phosphate, and 66 mmol/L MgCl2; 2 µL solution B: 40 U/mL glucose-6-phosphate dehydrogenase in 5 mmol/L sodium citrate), and deionized water (69 µL) were added, in a total volume of 150 μL. The tubes were vortex-mixed and preincubated with continuous gentle shaking for 5 min at 37 °C in a shaking water bath. Reactions were initiated by the addition of 50 µL of HLM solution in the tubes which were gently mixed by hand and incubated with continuous gentle shaking at 37 °C. Aliquots of 200 µL ice-cold solvent (Table 1) containing IS (1 µg/mL) were added. […] The supernatants were transferred to glass autosampler vials and submitted to LC-MS/MS analysis (5 µL injection volume) to monitor the substrate metabolite formation.
In general terms: Microsomes from liver hold many membrane-bound enzymes, among them those of drug oxidation.

For data set [2], the system named is CYP3A. As to conditions: ref [9]; cited from earlier work.
Data set [3] concerns CYP3A. As to conditions: clinical DDI studies; ref [9]; cited from earlier work.
In data set [4] the target is T3, CYP1A2 (Homo sapiens, UniProt P05177).
T3 sequence (P05177 1-516): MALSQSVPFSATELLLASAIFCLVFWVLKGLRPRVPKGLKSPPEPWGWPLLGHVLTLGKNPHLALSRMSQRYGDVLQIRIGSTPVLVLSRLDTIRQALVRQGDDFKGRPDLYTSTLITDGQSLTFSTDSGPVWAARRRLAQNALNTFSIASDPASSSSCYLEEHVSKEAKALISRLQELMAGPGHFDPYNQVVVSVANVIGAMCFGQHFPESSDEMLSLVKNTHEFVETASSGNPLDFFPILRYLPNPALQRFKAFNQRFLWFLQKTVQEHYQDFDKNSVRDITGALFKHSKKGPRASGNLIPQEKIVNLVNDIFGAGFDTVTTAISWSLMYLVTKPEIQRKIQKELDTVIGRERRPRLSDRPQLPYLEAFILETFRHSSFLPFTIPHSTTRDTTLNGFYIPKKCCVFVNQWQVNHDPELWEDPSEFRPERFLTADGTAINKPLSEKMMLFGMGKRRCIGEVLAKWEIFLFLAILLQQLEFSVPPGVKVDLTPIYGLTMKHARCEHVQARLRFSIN
As to conditions: cited from earlier work.

The next data set has as its system CYP2B6. Details: method as in PMID 25429674. As to conditions: ref [9]; cited from earlier work.
The next data set addresses CYP2D6 (Homo sapiens, UniProt P10635). Details: method as in PMID 25429674. As to conditions: ref [9]; cited from earlier work.
The target of data set [5] is T2, CYP2A6. More on the design: method as in PMID 25429674. As to conditions: ref [9]; cited from earlier work.
In another data set the target is CYP2C19 (Homo sapiens, UniProt P33261). More on the design: method as in PMID 25429674. As to conditions: ref [9]; cited from earlier work.
CYP2C19, sequence (P33261 whole entry): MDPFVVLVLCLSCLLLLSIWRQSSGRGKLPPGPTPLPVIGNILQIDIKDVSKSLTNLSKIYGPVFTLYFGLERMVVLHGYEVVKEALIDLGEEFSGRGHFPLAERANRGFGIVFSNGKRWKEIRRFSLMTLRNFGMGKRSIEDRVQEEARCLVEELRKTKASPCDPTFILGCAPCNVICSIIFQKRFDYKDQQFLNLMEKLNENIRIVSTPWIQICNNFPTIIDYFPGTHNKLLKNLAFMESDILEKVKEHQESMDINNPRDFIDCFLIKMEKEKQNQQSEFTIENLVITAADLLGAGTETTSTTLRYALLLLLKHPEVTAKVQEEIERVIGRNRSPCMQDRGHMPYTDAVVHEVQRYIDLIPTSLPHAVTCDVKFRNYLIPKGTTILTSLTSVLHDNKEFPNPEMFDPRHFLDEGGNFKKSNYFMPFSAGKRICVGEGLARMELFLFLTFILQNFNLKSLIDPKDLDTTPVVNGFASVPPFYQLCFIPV
For another data set, the system named is CYP1A1. Details: method as in PMID 25429674. As to conditions: ref [9]; cited from earlier work.
Another data set has as its system CYP3A4/5. In words: in vitro CYP450 metabolism inhibition assay in human liver microsomes, CYP3A (midazolam or nifedipine). As to conditions: human, microsomes, pH 7.4. On the procedure:
as §1, §2

In data set [6] the target is T3, CYP1A2. More on the design: method as in PMID 25429674. As to conditions: ref [9]; cited from earlier work.

Bounds are passed on as bounds.

CYP2D6, sequence (P10635 whole entry): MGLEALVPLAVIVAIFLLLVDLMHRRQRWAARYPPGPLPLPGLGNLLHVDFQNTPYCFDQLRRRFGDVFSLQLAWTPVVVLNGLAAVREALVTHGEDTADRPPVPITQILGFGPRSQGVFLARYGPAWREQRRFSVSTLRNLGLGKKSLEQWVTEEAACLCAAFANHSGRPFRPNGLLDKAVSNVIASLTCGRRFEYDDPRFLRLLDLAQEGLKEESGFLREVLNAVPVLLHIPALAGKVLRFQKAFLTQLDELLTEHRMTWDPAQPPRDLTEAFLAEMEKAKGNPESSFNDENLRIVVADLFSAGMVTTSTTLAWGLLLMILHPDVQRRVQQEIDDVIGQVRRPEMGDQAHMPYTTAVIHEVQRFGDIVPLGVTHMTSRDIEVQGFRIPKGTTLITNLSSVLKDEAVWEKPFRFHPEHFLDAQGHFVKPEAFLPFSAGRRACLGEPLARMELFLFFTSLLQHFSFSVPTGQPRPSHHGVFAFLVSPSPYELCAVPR

In the case of `Cc1ncc2n1-c1ccc(Cl)cc1C(c1ccccc1F)=NC2` [Midazolam], in the data set on CYP3A4, the “fm (fraction metabolized)” value is reported as 0.88.
As for `CC(=O)O[C@H]1C(=O)[C@@]2(C)[C@H]([C@H](OC(=O)c3ccccc3)[C@]3(O)C[C@H](OC(=O)[C@H](O)[C@@H](NC(=O)c4ccccc4)c4ccccc4)C(C)=C1C3(C)C)[C@]1(OC(C)=O)CO[C@@H]1C[C@@H]2O` [Paclitaxel], the “fm (fraction metabolized)” value at CYP2C8 is 0.5.
On to `N[C@@H]1C[C@H]1c1ccccc1` (racemic) [Tranylcypromine, reference compound], for which the IC50 (commonly the concentration at which inhibition is half-maximal) at CYP2A6 [1] is 799 nM.
With `CC[C@@H]([C@H](C)O)n1ncn(-c2ccc(N3CCN(c4ccc(OC[C@@H]5CO[C@@](Cn6cncn6)(c6ccc(F)cc6F)C5)cc4)CC3)cc2)c1=O` [posaconazole], the “in vitro inhibition of CYP3A” value in the data set on CYP3A [2] is listed as “strongly inhibits”. For the same molecule, in the data set on CYP3A [3], the “clinical CYP3A inhibitor strength” value was “moderate to strong CYP3A inhibitors”.
`CCOc1ccc(NC(C)=O)cc1` [Phenacetin]: the “fm (fraction metabolized)” value on CYP1A2 [4] was 0.71.
In the case of `CCC(C)n1ncn(-c2ccc(N3CCN(c4ccc(OCC5COC(Cn6cncn6)(c6ccc(Cl)cc6Cl)O5)cc4)CC3)cc2)c1=O` (stereo not shown) [itraconazole], the “in vitro inhibition of CYP3A” value in the data set with CYP3A [2] is reported as “strongly inhibits”. In the data set on CYP3A [3], the “clinical CYP3A inhibitor strength” value was “moderate to strong CYP3A inhibitors”. The “in vitro inhibition of CYP2B6” value in the data set with CYP2B6 is reported as “strongly inhibits”.
As to `Clc1ccc(COC(Cn2ccnc2)c2ccc(Cl)cc2Cl)c(Cl)c1` (stereo not shown) [miconazole], in the data set on CYP3A [2], the “in vitro inhibition of CYP3A” value is “strongly inhibits”. Besides, the “in vitro inhibition of CYP2D6” value at CYP2D6 is given as “strongly inhibits”. The “in vitro inhibition of CYP2B6” value with CYP2B6 is reported as “strongly inhibits”. Besides, on CYP2A6 [5], the “in vitro inhibition of CYP2A6” value is reported as “strongly inhibits”. Besides, the “in vitro inhibition of CYP2C19” value on CYP2C19 was “strongly inhibits”.
For the molecule `CC(=O)N1CCN(c2ccc(OCC3COC(Cn4ccnc4)(c4ccc(Cl)cc4Cl)O3)cc2)CC1` (stereo not shown) [Ketoconazole], in the data set with CYP1A1, the “in vitro inhibition of CYP1A1” value is “strongly inhibits”. Also, the “in vitro inhibition of CYP3A” value in the data set on CYP3A [2] is recorded as “strongly inhibits”. In addition, the “clinical CYP3A inhibitor strength” value in the data set with CYP3A [3] is “moderate to strong CYP3A inhibitors”. Moreover, in the data set on CYP3A4/5, the IC50 is less than 10 nM. In addition, the “in vitro inhibition of CYP1A2” value at CYP1A2 [6] was “moderately inhibits”. Besides, the “in vitro inhibition of CYP2A6” value on CYP2A6 [5] is “moderately inhibits”.
Regarding `OC(Cn1cncn1)(Cn1cncn1)c1ccc(F)cc1F` [fluconazole], the “in vitro inhibition of CYP3A” value with CYP3A [2] is given as “moderately inhibits”. Further, in the data set with CYP3A [3], the “clinical CYP3A inhibitor strength” value is on record as “moderate to strong CYP3A inhibitors”.
